Assay: gradient 5% acetonitrile 3 min, to 50% in 2 min, to 85% in 15 min, held 3 min, 100 µL/min
Details: column: Zorbax Extend-C18 2.1 x 50 mm; eluents: water / acetonitrile, 0.1% formic acid
How it was run: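 Standards, all pure, were combined into mixtures of ~100 molecules and run at 100 μL/min on a Zorbax Extend-C18 column (2.1 × 50 mm, 1.8 μm) with water and acetonitrile, each containing 0.1% formic acid. A coupled quadrupole time-of-flight mass spectrometer operated in positive and negative ionization mode. Retention time values come from computationally picked adduct peaks, each inspected manually.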

Structure (SMILES)	RP-LC retention time
CC(=O)N1c2ccc(S(=O)(=O)N3CCCCC3)cc2CC1C(=O)Nc1ccc(C)c(C)c1 (stereo unspecified)	966 s
Cc1ccc(C(=O)N2CCc3[nH]nc(C(=O)N(C)C)c3C2)cc1F	625 s
O=C(NCc1cccs1)C1CCCN(S(=O)(=O)c2cc(-c3noc(C4CCC4)n3)cs2)C1 (stereo unspecified)	1070 s
c1ccc(CSc2nc3ncncc3[nH]2)cc1	719 s
Cc1ccc(NC(=O)N2C[C@H](c3nc(-c4ccncc4)no3)[C@@H](C)C2)cc1	795 s
Fc1ccc(-c2ccc(-c3nn4c(-c5ccco5)nnc4s3)o2)cc1	896 s
CCOc1ccccc1-c1noc(Cn2c(=O)n(Cc3ccc(C)cc3)c(=O)c3sccc32)n1	1170 s
CCOc1ccc(NC(=O)Cn2c(-c3cnccn3)nc(C)c(C)c2=O)cc1	735 s
COCC(=O)NC1CCC12CCN(C(=O)c1ccco1)CC2 (stereo unspecified)	648 s
Cc1cccc(-c2noc(-c3ccc(N4CCN(C5CCCCC5)CC4)nc3)n2)c1	831 s
CCCCn1cc(S(=O)(=O)N2CCN(c3cccc(Cl)c3)CC2)c2cccnc21	1250 s
CCn1nc(C)c(CCNC(=O)C2CCCN(C(=O)c3[nH]c(C)cc3C)C2)c1C (stereo unspecified)	630 s
C=CCn1c(=O)c2ccccc2n(Cc2nc(-c3ccc(Br)cc3)no2)c1=O	1150 s
COc1ccccc1C(=O)N1CCN(c2ccc(-c3nc(C)c(C)s3)cn2)CC1	851 s
O=S(=O)(Nc1ccccc1)c1cccnc1Nc1ccc(F)cc1	1020 s
Cc1nnc2n1CCC(NC(=O)Cc1cccs1)CC2 (stereo unspecified)	550 s
Cn1cccc1C(=O)C(=O)NCc1ccc2c(c1)OCO2	793 s
Cc1ccc(F)c(NC(=O)c2cnc3c(c2)c(=O)n(C)c(=O)n3-c2ccccc2)c1	904 s
CCn1c(=O)sc2cc(S(=O)(=O)N3CCC(C(=O)N4CCC5(CC4)OCCO5)CC3)ccc21	781 s
CC(C)N1CCn2cc(S(=O)(=O)NCc3ccc(F)cc3Cl)cc2C1=O	788 s
COc1ccc(N2C(=O)CC(N3CCC(C(N)=O)CC3)C2=O)c(OC)c1 (stereo unspecified)	578 s
CC1CCCN(C(=O)C(=O)NCc2n[nH]c(=O)c3ccccc23)C1 (stereo unspecified)	644 s

Structure (SMILES)	RP-LC retention time
O=C(CCCn1c(=O)c2cccn2c2ccc(F)cc21)NCCCN1CCOCC1	603 s
CCOC(=O)c1cc(S(=O)(=O)N2CCCC2C(=O)Nc2cccc(Br)c2)cn1C (stereo unspecified)	1010 s
Cn1cnnc1SCCNC(=O)CCc1cccc(Oc2ccc(F)cc2)c1	697 s
CCN(CC)CCCNC(=O)C1CCCN(c2ncc(-c3cccc(F)c3)cn2)C1 (stereo unspecified)	677 s
CCc1nc2cccnc2n1CCN1CCN(C(=O)Nc2ccccc2Cl)CC1	583 s
CN1C(=O)Cc2cc(C(=O)N3CCN(c4ccccc4Cl)CC3)ccc21	825 s
NC(=O)Cn1c(Cc2ccccc2Cl)nc2ccccc21	591 s
COc1ccc2c(=O)oc3c(OC)cc(CCN(C)C)c4c(=O)oc1c2c34	689 s
Cc1ccc(CNC(=O)C2(C)Cn3cnc(C(=O)NC4CCCCC4)c3C(=O)N2C2CC2)cc1 (stereo unspecified)	819 s
COc1ccc(NC(=O)Nc2ccc(C)n(CC(=O)O)c2=O)cc1	668 s
COc1ccccc1NC(=O)N1CCN(c2cc(C)nc(N3CCOCC3)n2)CC1	618 s
COCCNC(=O)N1CC(c2nc(C3CC3)no2)C1	578 s
CC(C)NC(=O)c1ccc(OCC2CCCN2C(=O)Cc2cccs2)cc1 (stereo unspecified)	807 s
COc1ccc(NC(=O)C2CCN(S(=O)(=O)c3ccc4c(c3)NC(=O)CO4)CC2)cc1Cl	777 s
Cc1ccc(-c2ncc(C(=O)NCCN3CCCCCC3)c(-c3ccncc3)n2)cc1	637 s
COCCNC(=O)N(C)CCc1noc(COc2ccc(Cl)cc2)n1	747 s
Cc1nc(Nc2ccc(F)cn2)sc1C(=O)N1CCN(C2CCCCC2)CC1	639 s
COc1ccc(C2=C(C)C(N3CCC(C(=O)N(C)Cc4ccco4)CC3)=NS2(=O)=O)cc1	815 s
Nc1c(C(=O)NCc2ccccc2Cl)nsc1C(=O)N1CCN(c2ccccn2)CC1	715 s
CCNC(=O)c1nc(Nc2ccc(C)cc2)c2ccccc2n1	705 s
CCc1nc2cc(N3CCC(C(=O)NCc4ccc(F)cc4F)CC3)cnc2nc1CC	852 s
CCc1nnc2cc(N3CCN(S(=O)(=O)c4cccc(F)c4)CC3)cnn12	690 s

Structure (SMILES)	RP-LC retention time
O=C(Nc1nc(-c2cccnc2)cs1)c1ccc(Br)s1	654 s
Cc1ccc(-c2csc(Nc3ccc(Br)cn3)n2)cc1C	1340 s
O=C(c1c(F)cccc1Cl)N1CCCC(c2nnc(-c3ccccc3F)s2)C1 (stereo unspecified)	920 s
CCc1cc(=O)n(CC(=O)Nc2cccc(SC)c2)c(N2CCOCC2)n1	846 s
CC(C)Oc1ccc(C(=O)N[C@H](CNC(=O)CN(C)C)Cc2ccc(-c3cn4cccc([C@H](C)O)c4n3)cc2)cc1Cl	664 s
O=C(c1ccc(F)c(Cl)c1)N1CCC2(CC1)N=C(c1ccccc1)NO2	800 s
O=C(Nc1nnc(-c2cc3ccccc3o2)o1)c1ccc(Cl)s1	902 s
O=C(COc1ccc(-c2cnc3ccccc3n2)cc1)NCCN1CCCC1	623 s
CCC(Oc1ccc(=O)n(-c2ccc(F)cc2)n1)C(=O)NCCCOC (stereo unspecified)	677 s
COc1ccc(C)cc1N1C(=O)CC(N2CCC(C(N)=O)CC2)C1=O (stereo unspecified)	590 s
Cc1ccc(-c2nnc(-c3ccc(Br)cc3)o2)cc1S(=O)(=O)N1CCCC1	1190 s
CC1CC(C)CN(CCCNC(=O)CCCn2c(=O)c3cccn3c3ccccc32)C1 (stereo unspecified)	659 s
O=C(NCCn1c(=O)n(Cc2ccc(F)cc2)c2cccnc21)c1cnccn1	719 s
COc1cc(NC(=O)Nc2cccc(CNC(=O)O[C@H]3CCOC3)c2)ccc1-c1cnco1	838 s
O=C(Nc1ccccc1Cl)c1csc(-c2ccc(N3CCCC3)nc2)n1	878 s
Cc1ccc(C)c(N2CCN(C(=O)C3CCN(S(=O)(=O)c4cn(C)cn4)CC3)CC2)c1	832 s
Clc1ccc2nc(Nc3ncccn3)nc(-c3ccccc3)c2c1	747 s
COc1c(C(=O)NC2CC2)sc2ccc(Cl)cc12	965 s
CCCN1C(=O)c2cc(S(=O)(=O)NCc3cccs3)ccc2Oc2cccnc21	988 s
COc1cc2c(cc1OC)C(C1(O)CCCCC1)NCC2 (stereo unspecified)	660 s
Cc1ccccc1-c1noc(Cn2ccn3nc(-c4ccc5c(c4)OCO5)cc3c2=O)n1	1040 s
C/C=C1\C2C=C(C)C[C@]1(N)c1ccc(=O)[nH]c1C2	578 s

— the METLIN SMRT retention time set (Domingo-Almenara et al. 2019)
